# Measurements reported in patent US6528524B2, “Pharmaceutical compositions containing cinchonine dichlorhydrate” (Debiopharm SA, priority 1997, dated 2003).
# Counter-ions that a name gives are not always drawn. Like-named read-outs stand apart in the source and are kept apart here.
# Assays:
# [1] = cited from earlier work
# [2] = In vivo bioavailability / pharmacokinetic study in Beagle dogs; set-up: C20 min: unit not given here; conditions: for T1/2 a / C20 min / half-life: dose 50 mg/kg; for T1/2 a / half-life: absorption; for C20 min: blood concentration 20 minutes after administration; for half-life: Beagle, dog, blood, read-out: T1/2 a
# Experimental: These tests were performed in four “Beagle” dogs, two of which were male and two female.
# Each dog received, on day 1, a dose of 50 mg per kg of cinchonine dihydrochloride and, on day 8, an equivalent dose of cinchonine monohydrochloride. Blood samples were taken at regular intervals after each administration.
# [3] = Stability of cinchonine dihydrochloride in aqueous solution (NMR spectra day 0 vs day 30); format: physicochemical; conditions: aqueous solution kept at ambient temperature and in the light for 30 days
# Experimental: The ^1H and ^13C spectra were built up using samples of 100 mg and 20 mg respectively in 0.5 ml of deuterated methanol.
# The NMR spectra were obtained using a Bruker DRX 500 spectrometer fitted with a so-called “reversible” sensor.
# The aqueous solution was kept at ambient temperature and in the light for 30 days. After 30 days, the NMR spectra were recorded in the same way as above.
# [4] = Beagle dog F1 (female), monohydrochloride
# [5] = Beagle dog F2 (female), monohydrochloride
# [6] = Beagle dog M1 (male), monohydrochloride
# [7] = Beagle dog M2 (male), monohydrochloride
# [8] = Beagle dog F2 (female), dihydrochloride
# [9] = Beagle dog M1 (male), dihydrochloride
structure (smiles),measurement,setting,value
C=C[C@H]1C[N@@]2CC[C@H]1C[C@@H]2[C@@H](O)c1ccnc2ccccc12 [cinchonine],solubility in water,[1],very sparingly soluble in water
"C=C[C@H]1C[N@@]2CC[C@H]1C[C@@H]2[C@@H](O)c1ccnc2ccccc12 [CMH, cinchonine monohydrochloride, reference compound]",T1/2 a,[2]; [4],3 s
same,C20 min,[2]; [4],1.04
same,T1/2 a,[2]; [5],6.6 s
same,C20 min,[2]; [5],1.66
same,T1/2 a,[2]; [6],3.6 s
same,C20 min,[2]; [6],0
same,T1/2 a,[2]; [7],14.4 s
same,C20 min,[2]; [7],0.25
"C=C[C@H]1C[N@@]2CC[C@H]1C[C@@H]2[C@@H](O)c1ccnc2ccccc12 [CDH, cinchonine dihydrochloride]",C20 min,"[2]; Beagle dog F1 (female), dihydrochloride",2.05
same,T1/2 a,[2]; [8],20.4 s
same,C20 min,[2]; [8],3.68
same,T1/2 a,[2]; [9],15.6 s
same,C20 min,[2]; [9],0.23
same,C20 min,"[2]; Beagle dog M2 (male), dihydrochloride",2.1
same,"absorption time, compared with cinchonine monohydrochloride","[2]; Beagle dogs, 50 mg/kg",greater than that of cinchonine monohydrochloride
same,"blood concentration 20 minutes after administration, compared with cinchonine monohydrochloride","[2]; Beagle dogs, 50 mg/kg",greater than that of cinchonine monohydrochloride
same,half-life,"[2]; female, 50 mg/kg, Beagle dog F1 (female)",6 s
same,half-life,"[2]; male, 50 mg/kg, Beagle dog M2 (male)",23.4 s
same,Stability (NMR spectra on day 0 and day 30),[3]; listed as Cinchonine dihydrochloride,remarkable stability
same,Stability (NMR spectra on day 0 and day 30),[3]; listed as cinchonine dihydrochloride,unchanged
